We go through 3 compounds from patent publication US12421225B2, “Heteroaromatic amide derivative and medicament containing the same” (KAKEN PHARMACEUTICAL CO., LTD., priority 2018, dated 2025).

One experiment deals with human Nav1.7 (Homo sapiens (Human), UniProt Q15858). The experiment in a line: Human Nav1.7 inhibitory activity evaluation (automated patch clamp QPatch16X, HEK293A cells stably expressing human Nav1.7 and human Navβ1). Format: cell-based. In a few lines: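 IC50 calculated from the concentration-response of inward current evoked by the second −10 mV, 50 ms depolarisation, which follows a 15 s conditioning step at roughly 30-40% inactivation and a 100 ms −120 mV interval. Cells: HEK293A expressing human Nav1.7/Navβ1, automated patch clamp, room temperature, 0.1% DMSO final.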

Another experiment deals with human Nav1.5 (Homo sapiens (Human), UniProt Q14524). The experiment in a line: Human Nav1.5 inhibitory activity evaluation (automated patch clamp QPatch16X, HEK293 cells stably expressing human Nav1.5). The format is cell-based. In a few lines:
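IC50 derived from concentration-response of inward current at the 20th of 20 action-potential-mimicking pulses (holding −80 mV, leak corrected with −100 mV step). HEK293 cells stably expressing human Nav1.5, room temperature, extracellular pH 7.4, intracellular CsF-based pH 7.3, 0.1% DMSO.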

Experiment [1] concerns male ICR mice. Kind of experiment: Effect on acute pain (capsaicin-induced pain-related behavior, hind paw). The format is in vivo. How it is done:
Test Example 3: Effect on Acute Pain
Six-week old male ICR mice were used for the test. Test compounds were orally administered at 1-10 mg/kg and the mice were habituated to a clear observation cage for 60 minutes. The mice were lightly restrained under no anesthesia and 20 μL of 80 μg/mL (0.8% ethanol-saline) capsaicin solution was injected subcutaneously into the plantar surface of rihgt hind paw of mice. The mice were returned to the observation cage and, from just after that, the duration of pain-related behavior (licking, shaking) occurring in the right hind limb was measured as the reaction time for 5 minutes.
The inhibition rate of the test compound was determined by the following calculation formula. Test compound inhibition rate (%)=100×[1−(response time of test compound administered group/response time of vehicle control group)]

For experiment [2], the system named is male ICR mice. Kind of experiment: Effect on a neuropathic pain (L5 spinal nerve cut, von Frey 50% pain threshold). The conditions noted are these: allodynia-developed mice, dose of 10 mg/kg or less, single oral administration. The format is in vivo. How it is done:
Test Example 4: Effect on a Neuropathic Pain
Five-week old male ICR mice were used for the test. The skin and muscles were incised to expose the sixth lumbar vertebra under isoflurane anesthesia, and the right transverse process was removed. The L5 spinal nerve was isolated from the surrounding tissue to cut out, and then the incision site was sutured.
The 50% pain threshold of the plantar surface was determined by referring to the method of Chaplan S R et al. (J Neurosci Methods 1994, 53: 55-63) using von Frey filaments (0.008 g, 0.02 g, 0.04 g, 0.07 g, 0.16 g, 0.4 g and 0.6 g). First, the mice were placed in a measurement case with a lattice scaffold and habituatedd until the animal settled; 0.07 g of filament was pressed against the plantar surface for about 3 seconds. If withdrawal behavior was observed, the filament with the stimulation intensity one level lower was used to apply stimulation, and conversely, if the withdrawal behavior was not detected, the filament with the stimulation intensity one level higher was used to apply stimulation. By repeating this operation, starting from 2 times before and after the presence or absence of escape behavior changed, the results for a total of 6 times were recorded, to calculate a 50% pain threshold using the following calculation formula. 50% pain threshold (g)=(10^[Xf+κδ]/10000)
Xf is the value of the stimulus intensity of the filament used in the last stimulation (log value), κ is the value derived from the pattern of presence/absence of withdrawal behavior for 6 times, and δ is the difference in stimulus intensity (log value) between the filaments used (here 0.365).

The mark [3] stands for this setting: HEK293A cells stably expressing human Nav1.7 and human Navβ1, automated patch clamp QPatch16X.
Setting [4] is: HEK293 cells stably expressing human Nav1.5, automated patch clamp QPatch16X.

As a reminder, the IC50 is the point on the concentration scale where inhibition reaches its midpoint. High values mean a need for much substance, low ones inhibition by little substance.

Chain of human Nav1.5 (Q14524 whole entry): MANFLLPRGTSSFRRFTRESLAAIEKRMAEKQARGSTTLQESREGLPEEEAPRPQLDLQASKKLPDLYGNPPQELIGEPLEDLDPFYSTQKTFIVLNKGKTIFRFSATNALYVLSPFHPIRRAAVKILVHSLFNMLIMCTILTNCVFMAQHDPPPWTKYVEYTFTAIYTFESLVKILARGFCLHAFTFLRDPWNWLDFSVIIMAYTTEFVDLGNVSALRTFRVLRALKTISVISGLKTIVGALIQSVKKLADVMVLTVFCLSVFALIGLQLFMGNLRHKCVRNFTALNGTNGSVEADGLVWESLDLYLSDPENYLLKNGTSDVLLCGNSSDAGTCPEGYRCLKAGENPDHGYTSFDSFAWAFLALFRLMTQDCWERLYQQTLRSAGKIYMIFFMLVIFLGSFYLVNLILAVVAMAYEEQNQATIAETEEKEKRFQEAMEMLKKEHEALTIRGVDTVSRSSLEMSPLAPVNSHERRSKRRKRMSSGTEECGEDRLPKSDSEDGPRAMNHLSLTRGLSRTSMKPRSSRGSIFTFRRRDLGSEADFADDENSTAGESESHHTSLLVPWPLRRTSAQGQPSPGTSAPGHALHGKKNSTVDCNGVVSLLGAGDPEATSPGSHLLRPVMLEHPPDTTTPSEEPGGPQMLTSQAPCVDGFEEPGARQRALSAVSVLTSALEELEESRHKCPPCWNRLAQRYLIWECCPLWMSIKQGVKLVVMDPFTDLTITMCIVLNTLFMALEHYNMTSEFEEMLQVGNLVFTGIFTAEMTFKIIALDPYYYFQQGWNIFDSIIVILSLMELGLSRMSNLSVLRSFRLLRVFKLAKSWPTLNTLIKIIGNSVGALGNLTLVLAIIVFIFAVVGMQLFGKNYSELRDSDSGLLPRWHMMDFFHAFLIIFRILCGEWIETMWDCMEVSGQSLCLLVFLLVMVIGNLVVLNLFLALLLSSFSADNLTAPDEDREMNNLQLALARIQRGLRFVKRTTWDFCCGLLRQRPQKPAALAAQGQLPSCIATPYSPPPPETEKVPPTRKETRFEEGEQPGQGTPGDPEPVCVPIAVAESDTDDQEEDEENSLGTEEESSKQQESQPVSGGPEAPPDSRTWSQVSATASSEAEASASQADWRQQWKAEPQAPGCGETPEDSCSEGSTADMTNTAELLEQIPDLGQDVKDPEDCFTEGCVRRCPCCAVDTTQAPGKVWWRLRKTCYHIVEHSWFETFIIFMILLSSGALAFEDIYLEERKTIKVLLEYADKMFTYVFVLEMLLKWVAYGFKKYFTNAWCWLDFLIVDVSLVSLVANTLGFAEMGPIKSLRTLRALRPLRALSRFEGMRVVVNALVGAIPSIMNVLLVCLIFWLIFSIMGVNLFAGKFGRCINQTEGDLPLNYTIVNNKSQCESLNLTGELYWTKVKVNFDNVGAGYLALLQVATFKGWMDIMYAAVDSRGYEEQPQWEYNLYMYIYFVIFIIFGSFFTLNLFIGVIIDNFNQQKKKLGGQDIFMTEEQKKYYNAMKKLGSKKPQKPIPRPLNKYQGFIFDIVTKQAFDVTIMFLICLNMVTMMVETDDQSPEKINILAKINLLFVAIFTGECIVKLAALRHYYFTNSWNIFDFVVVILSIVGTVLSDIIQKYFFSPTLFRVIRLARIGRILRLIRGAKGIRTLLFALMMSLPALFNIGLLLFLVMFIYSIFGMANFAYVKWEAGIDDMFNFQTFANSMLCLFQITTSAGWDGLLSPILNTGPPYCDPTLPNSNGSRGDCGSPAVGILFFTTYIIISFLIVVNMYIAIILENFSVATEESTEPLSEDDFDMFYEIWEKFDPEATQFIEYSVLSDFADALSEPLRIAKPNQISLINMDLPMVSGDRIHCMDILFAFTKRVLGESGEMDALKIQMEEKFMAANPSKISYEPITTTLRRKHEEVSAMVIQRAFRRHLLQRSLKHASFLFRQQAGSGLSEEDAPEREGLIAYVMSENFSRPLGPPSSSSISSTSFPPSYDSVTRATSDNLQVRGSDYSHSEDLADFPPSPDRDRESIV
Chain of human Nav1.7 (Q15858 whole entry): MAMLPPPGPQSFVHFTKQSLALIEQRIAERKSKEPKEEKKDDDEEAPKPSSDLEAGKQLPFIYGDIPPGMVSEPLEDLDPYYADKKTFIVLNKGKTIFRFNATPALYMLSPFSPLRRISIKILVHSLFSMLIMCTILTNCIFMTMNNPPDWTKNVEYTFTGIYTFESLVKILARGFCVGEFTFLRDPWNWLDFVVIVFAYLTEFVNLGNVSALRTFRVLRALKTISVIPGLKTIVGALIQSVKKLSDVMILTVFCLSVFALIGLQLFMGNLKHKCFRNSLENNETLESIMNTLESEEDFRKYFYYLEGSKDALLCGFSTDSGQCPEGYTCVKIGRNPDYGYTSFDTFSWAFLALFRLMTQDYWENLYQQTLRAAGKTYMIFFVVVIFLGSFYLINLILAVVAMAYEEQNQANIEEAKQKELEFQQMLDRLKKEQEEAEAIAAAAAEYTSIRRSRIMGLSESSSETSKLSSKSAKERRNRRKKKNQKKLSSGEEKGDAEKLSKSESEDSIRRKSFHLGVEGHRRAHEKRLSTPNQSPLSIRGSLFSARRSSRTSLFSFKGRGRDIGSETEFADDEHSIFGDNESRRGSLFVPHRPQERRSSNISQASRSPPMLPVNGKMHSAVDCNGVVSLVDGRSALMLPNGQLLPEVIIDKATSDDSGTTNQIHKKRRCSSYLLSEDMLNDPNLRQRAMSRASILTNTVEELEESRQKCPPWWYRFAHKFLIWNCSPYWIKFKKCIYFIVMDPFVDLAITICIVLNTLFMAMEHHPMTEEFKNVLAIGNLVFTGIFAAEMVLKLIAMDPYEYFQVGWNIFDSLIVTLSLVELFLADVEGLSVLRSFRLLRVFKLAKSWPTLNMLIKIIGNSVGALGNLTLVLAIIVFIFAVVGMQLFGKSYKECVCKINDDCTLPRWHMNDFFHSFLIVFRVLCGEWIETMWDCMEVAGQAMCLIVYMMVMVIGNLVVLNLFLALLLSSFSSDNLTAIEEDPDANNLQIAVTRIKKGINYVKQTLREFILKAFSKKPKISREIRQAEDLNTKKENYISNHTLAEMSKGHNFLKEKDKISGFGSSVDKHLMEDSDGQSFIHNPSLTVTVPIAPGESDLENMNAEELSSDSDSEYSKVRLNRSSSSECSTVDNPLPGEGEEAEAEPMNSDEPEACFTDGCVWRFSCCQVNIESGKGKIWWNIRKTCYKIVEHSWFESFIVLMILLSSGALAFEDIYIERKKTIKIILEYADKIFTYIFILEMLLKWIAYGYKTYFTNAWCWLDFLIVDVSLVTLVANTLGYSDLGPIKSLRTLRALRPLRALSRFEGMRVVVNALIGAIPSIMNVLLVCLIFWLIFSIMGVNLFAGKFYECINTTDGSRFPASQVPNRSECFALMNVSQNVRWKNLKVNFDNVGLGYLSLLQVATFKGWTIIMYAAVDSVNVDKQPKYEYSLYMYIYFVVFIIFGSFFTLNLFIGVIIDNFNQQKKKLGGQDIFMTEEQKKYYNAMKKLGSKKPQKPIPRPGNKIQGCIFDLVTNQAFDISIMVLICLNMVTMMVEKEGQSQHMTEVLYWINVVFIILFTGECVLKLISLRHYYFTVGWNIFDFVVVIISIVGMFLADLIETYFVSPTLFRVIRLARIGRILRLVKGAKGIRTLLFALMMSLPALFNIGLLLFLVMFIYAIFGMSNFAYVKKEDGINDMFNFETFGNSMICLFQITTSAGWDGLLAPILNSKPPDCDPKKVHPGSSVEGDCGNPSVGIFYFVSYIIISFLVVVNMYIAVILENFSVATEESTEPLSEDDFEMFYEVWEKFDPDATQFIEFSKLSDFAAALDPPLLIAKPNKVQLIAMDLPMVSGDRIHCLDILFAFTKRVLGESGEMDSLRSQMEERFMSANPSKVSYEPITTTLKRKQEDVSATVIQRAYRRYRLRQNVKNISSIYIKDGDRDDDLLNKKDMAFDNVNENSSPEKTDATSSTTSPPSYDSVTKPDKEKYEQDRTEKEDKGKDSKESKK
Chain of human Nav1.7 (Q07699 19-218 partner): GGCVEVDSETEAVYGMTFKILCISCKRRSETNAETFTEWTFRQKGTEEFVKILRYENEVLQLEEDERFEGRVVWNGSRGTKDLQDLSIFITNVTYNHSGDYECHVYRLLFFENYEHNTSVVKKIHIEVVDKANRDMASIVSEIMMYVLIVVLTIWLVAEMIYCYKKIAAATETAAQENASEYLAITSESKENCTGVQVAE

Turning to `N#Cc1ccc2c(c1)C[C@@H](NC(=O)c1cc3n(n1)CCC(COC(F)(F)F)O3)CO2` (single isomer, unassigned) [134 (isomer A)], the IC50 on human Nav1.7 (setting [3]) was less than 1000 nM; at human Nav1.5 (setting [4]), 1000 to 3000 nM. Besides, the “Inhibition rate (%)” value in the experiment with male ICR mice [1] was “A (Compounds with an inhibition rate of 30% or more are indicated by the letter “A”)”. Further, the “50% pain threshold (antiallodynic effect)” value (from here on “50% pain threshold”) with male ICR mice [2] is given as “increased the 50% pain threshold”.

In the case of `O=C(N[C@H]1COc2ccc(C(F)(F)F)cc2C1)c1cc2n(n1)CCC(C(F)F)O2` (single isomer, unassigned) [161 (isomer A)], the IC50 against human Nav1.7 (human Nav1.7, automated patch clamp) is less than 1000 nM; against human Nav1.5 (human Nav1.5, automated patch clamp), no less than 3000 nM. Also, the “Inhibition rate (%)” value with male ICR mice [1] was “A (Compounds with an inhibition rate of 30% or more are indicated by the letter “A”)”. Further, the “50% pain threshold” value with male ICR mice [2] was “increased the 50% pain threshold”.

`N#Cc1ccc2c(c1)C[C@@H](NC(=O)c1cc3n(n1)CCC(COCC1CC1)O3)CO2` (single isomer, unassigned) [103 (isomer A)]: the IC50 was less than 1000 nM against human Nav1.7 (setting [3]) and no less than 3000 nM against human Nav1.5 (setting [4]). The “Inhibition rate (%)” value with male ICR mice [1] was “A (Compounds with an inhibition rate of 30% or more are indicated by the letter “A”)”. Also, the “50% pain threshold” value in the experiment with male ICR mice [2] is listed as “increased the 50% pain threshold”.
